{"source": "patent US20220087987A1", "about": "“A METHOD FOR TREATING SWI/SNF COMPLEX-DEFICIENT CANCERS COMPRISING GLUTATHIONE (GSH) METABOLIC PATHWAY INHIBITOR” (National Cancer Center, priority 2018, published 2022)", "type_in_all_cases": "cell-based, human", "key": {"[1]": {"test_system": "ROS", "test": "Detection of ROS in cells (ROS-Glo)", "experimental": "(§1) GSH, ROS and apoptosis were detected using the GSH/GSSG-Glo Assay (Promega) and/or the GSH-Glo Assay (Promega), the ROS-Glo Assay (Promega), and the Caspase-Glo 3/7 Assay, respectively. To measure levels of GSH, ROS and apoptosis after drug treatment, cells were trypsinized, counted, reseeded at the specified density in 96-well plates and exposed to the indicated concentrations of drugs. After 16-48 hrs, luminescence was measured using an Envision Multi-label plate reader (PerkinElmer). To measure levels of GSH and ROS after siRNA-mediated knockdown, cell lines were transfected with siRNAs (25 nM) using Lipofectamine RNAiMAX. After 48 hrs, cells were trypsinized and transfected repeatedly with siRNAs (25 nM) using Lipofectamine RNAiMAX. Cells were trypsinized after a further 48 hrs, counted, and reseeded at the specified density in 96-well plates. After 72-120 hrs, luminescence was measured using an Envision Multi-label plate reader (PerkinElmer). Cell viability was also measured using the CellTiter-Glo Luminescent Cell Viability Assay (Promega). Caspase-3/7, GSH, and ROS levels were normalized against cell viability. The GSH/GSSG ratio was calculated as the GSH-GSSG signal divided by the GSSG/2 signal. Relative signal ratios in treated samples were normalized against untreated samples."}, "[2]": {"test_system": "ovarian PDCs", "test": "Cell viability of ovarian patient-derived cancer cells", "conditions": "33 μM APR-246 or 100 μM BSO for 6 days", "experimental": "Tumor samples and ascites were obtained from four ovarian cancer patients who underwent surgery or cell-free and concentrated ascites reinfusion therapy at the National Cancer Center Hospital or Kaname-cho Hospital (Tokyo, Japan) and were cultured in vitro. This protocol was approved by the Institutional Review Board of the National Cancer Center (Tokyo, Japan), and informed consent was obtained from the patients. To establish CCCO219 and CCC1216 PDCs, patient ascites (24 ml) were diluted in two volumes of PBS containing 2 mM EDTA, layered over 15 ml Ficoll-Paque PLUS (GE Healthcare), and centrifuged at 2200 rpm for 30 min. The interphase mononuclear layer was transferred to a fresh conical tube and washed twice with PBS containing 2 mM EDTA. […]\nCell viability was examined by measuring the cellular ATP level using the CellTiter-Glo Luminescent Cell Viability Assay (Promega). […] Cells were trypsinized after a further 48 hrs, counted, and reseeded at the specified density in 96-well plates. To measure cell viability after drug treatment, cells were trypsinized, counted, reseeded at the specified density in 96-well plates, and exposed to the indicated concentrations of drugs. Cell viability was measured using the CellTiter-Glo Luminescent Cell Viability Assay. Luminescence was measured using an Envision Multi-label plate reader (PerkinElmer)."}, "[3]": {"test_system": "p53, p21", "test": "Immunoblot for p53 and p21", "conditions": "ARID1A-WT and ARID1A-KO HCT116; 50 μM PRIMA-1, 50 μM APR-246, 10 μM Nutlin3a, 16 hrs", "experimental": "The soluble fractions of whole-cell lysates were mixed with SDS sample buffer. […] The soluble fractions were mixed with SDS sample buffer. Tumor samples derived from xenografts were weighed and washed with PBS. […] The homogenized tumor samples were diluted in an additional 450 μl of NETN420 buffer, incubated for 30 min on ice, and centrifuged at 4° C. for 10 min at 15,000 rpm. The soluble fractions of whole-cell lysates were mixed with SDS sample buffer. Proteins were separated by SDS-PAGE, transferred to PVDF membranes, and immunoblotted with the indicated antibodies. β-actin was used as a loading control. Membranes were blocked overnight at 4° C. or for 1 hr at 25° C. with PVDF Blocking Reagent for Can Get Signal (TOYOBO) and then probed with Can Get Signal Solution 1 (TOYOBO) containing primary antibodies. After washing with TBS containing 0.1% Tween 20, the membranes were incubated with TBS containing 0.1% Tween 20, 1% BSA, and horseradish peroxidase-conjugated anti-mouse or anti-rabbit secondary antibodies, and visualized using Western Lightning ECL Pro (Perkin Elmer). Chemiluminescence signals were measured using LAS-3000 Imaging System (Fujifilm). Signal intensities were measured using Multi Gauge software."}, "[4]": {"test_system": "GSH", "test": "Detection of GSH in cells (GSH/GSSG-Glo, GSH-Glo)"}, "[5]": {"test_system": "ARID1A-KO cells and ARID1A-deficient cancer cells", "test": "Apoptosis detection (cleaved caspase-3/7, Annexin V)", "experimental": "The Annexin V-FITC/PI Apoptosis Detection Kit (Sigma-Aldrich) was used to detect apoptotic cells. Briefly, the cell pellet was suspended in 1× binding buffer and then incubated with Annexin V-FITC and PI in the dark for 10 min. Fluorescence was analyzed on a Guava flow cytometer (Millipore). Data were analyzed using GuavaSoft software (v. 2.7). Relative ratios of the Annexin V-positive fraction in treated samples were normalized against untreated samples.\nas §1, with “To measure levels of GSH and ROS after siRNA-mediated knockdown, cell lines were transfected with siRNAs (25 nM) using Lipofectamine RNAiMAX. After 48 hrs, cells were trypsinized and transfected repeatedly with siRNAs (25 nM) using Lipofectamine RNAiMAX.” left out, “Caspase-3/7, GSH, and ROS levels were normalized against cell viability.” left out, “Relative signal ratios in treated samples were normalized against untreated samples.” left out"}, "[6]": {"test_system": "SWI/SNF complexes (SMARCA2, SMARCA4, SMARCB1, PBRM1) deficient cancer cells", "test": "Cell viability of SWI/SNF complex-deficient cancer cell lines", "conditions": "treatment for 6 days", "experimental": "Cell viability was examined by measuring the cellular ATP level using the CellTiter-Glo Luminescent Cell Viability Assay (Promega). To measure cell viability after siRNA-mediated knockdown, cell lines were transfected with siRNAs (25 nM) using Lipofectamine RNAiMAX. After 48 hrs, cells were trypsinized and repeatedly transfected with siRNAs (25 nM) using Lipofectamine RNAiMAX. Cells were trypsinized after a further 48 hrs, counted, and reseeded at the specified density in 96-well plates. To measure cell viability after drug treatment, cells were trypsinized, counted, reseeded at the specified density in 96-well plates, and exposed to the indicated concentrations of drugs. Cell viability was measured using the CellTiter-Glo Luminescent Cell Viability Assay. Luminescence was measured using an Envision Multi-label plate reader (PerkinElmer)."}, "[7]": {"test_system": "diffuse-type gastric cancer PDCs", "test": "Cell viability of diffuse-type gastric cancer PDCs", "conditions": "treatment for 6 days"}, "[8]": {"conditions": "ARID1A-deficient versus ARID1A-proficient ovarian and other cancer cells"}}, "data": [{"compound": "COCC1(CO)C(=O)C2CCN1CC2", "note": "(stereo not drawn) [APR-246]", "values": [{"measurement": "ROS level in SWI/SNF complexes-deficient cancer cells", "setting": "[1]; 40 μM APR-246, 24 hrs", "result": "increased in the ROS level"}, {"measurement": "ROS levels in gastric cancer PDCs", "setting": "[1]; 40 or 50 μM APR-246, 48 hrs", "result": "increased more markedly in ARID1A-deficient than in ARID1A-proficient PDCs"}, {"measurement": "intracellular ROS level (H2O2)", "setting": "[1]; ARID1A-KO versus ARID1A-WT HCT116 cells, 48 hrs", "result": "increased more in ARID1A-KO cells than in ARID1A-WT cells"}, {"measurement": "levels of ROS and apoptosis in ovarian PDCs", "setting": "[1]; ARID1A-deficient PDCs, 40-50 μM, 24-48 hrs", "result": "increased the levels of ROS and apoptosis"}, {"measurement": "ROS level in cancer cell lines", "setting": "[1]; [8]", "result": "increased ROS level"}, {"measurement": "sensitivity of ARID1A-deficient versus ARID1A-positive PDCs", "setting": "[2]", "result": "more sensitive"}, {"measurement": "expression of p53 and p21", "setting": "[3]", "result": "did not markedly affect expression of p53 or p21"}, {"measurement": "GSH level (GSH/GSSG) in SWI/SNF complexes-deficient cancer cells", "setting": "[4]; 40 μM APR-246, 24 hrs", "result": "decreased in the GSH level"}, {"measurement": "GSH levels (GSH/GSSG) in gastric cancer PDCs", "setting": "[4]; 40 or 50 μM APR-246, 1.25 μM erastin, 24 hrs", "result": "markedly decreased GSH levels in ARID1A-deficient PDCs and not in ARID1A-proficient PDCs"}, {"measurement": "GSH level (ratio of reduced GSH to GSSG)", "setting": "[4]; ARID1A-KO HCT116 cells, but not ARID1A-WT cells, 24 hrs", "result": "dose-dependently decreased the GSH level"}, {"measurement": "GSH levels in ovarian PDCs", "setting": "[4]; ARID1A-deficient PDCs, 50 μM, 24 hrs", "result": "decreased the GSH levels"}, {"measurement": "GSH level in cancer cell lines", "setting": "[4]; [8]", "result": "decreased GSH level"}, {"measurement": "apoptosis (caspase activation, Annexin V)", "setting": "[5]", "result": "induced apoptosis"}, {"measurement": "IC50 values in SWI/SNF complexes deficient versus wild-type cell lines", "setting": "[6]", "result": "markedly lower in these SWI/SNF complexes deficient cell lines than in wild-type cell lines"}, {"measurement": "IC50 values in ARID1A-deficient versus ARID1A-proficient PDCs", "setting": "[7]", "result": "markedly lower in ARID1A-deficient PDCs than in ARID1A-proficient PDCs"}]}]}
